How the values were obtained:
[1] = molecular target: Cyclin-dependent kinase 2 (Homo sapiens, UniProt P24941); experiment: Inhibition of CDK2
[2] = Inhibition of MAPK
[3] = molecular target: Cyclin-dependent kinase 1 (Homo sapiens, UniProt P06493); experiment: Inhibition of CDC2
[4] = molecular target: Cyclin-dependent kinase 4 (Homo sapiens, UniProt P11802); experiment: Inhibition of CDK4
Chain of Cyclin-dependent kinase 4 (P11802 whole entry): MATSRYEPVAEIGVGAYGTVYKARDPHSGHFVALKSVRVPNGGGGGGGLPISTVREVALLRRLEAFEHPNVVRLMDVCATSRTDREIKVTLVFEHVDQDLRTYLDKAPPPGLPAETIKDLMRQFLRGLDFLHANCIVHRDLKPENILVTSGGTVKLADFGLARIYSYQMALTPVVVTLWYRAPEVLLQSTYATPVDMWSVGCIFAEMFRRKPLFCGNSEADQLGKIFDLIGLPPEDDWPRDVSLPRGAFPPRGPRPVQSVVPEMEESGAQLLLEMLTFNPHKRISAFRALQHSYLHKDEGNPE

Chain of Cyclin-dependent kinase 1 (P06493 whole entry): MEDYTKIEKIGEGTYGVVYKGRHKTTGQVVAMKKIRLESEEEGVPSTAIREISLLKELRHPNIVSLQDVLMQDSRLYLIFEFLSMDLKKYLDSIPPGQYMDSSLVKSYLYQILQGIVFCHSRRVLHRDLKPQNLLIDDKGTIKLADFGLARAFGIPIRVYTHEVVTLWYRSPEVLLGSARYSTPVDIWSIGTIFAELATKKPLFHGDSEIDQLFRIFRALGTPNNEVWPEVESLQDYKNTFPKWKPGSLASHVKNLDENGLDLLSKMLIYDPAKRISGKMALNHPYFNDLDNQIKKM

SMILES | IC50 [1] [nM] | IC50 [2] [nM] | IC50 [3] [nM] | IC50 [4] [nM]
O=C1Nc2cc3c(O[C@@H]4O[C@H](CO)[C@@H](O)[C@H](O)[C@H]4O)cccc3c3c4c(cc1c23)OCO4 | > 10000 | – | – | –
COc1c(O)cc2c3c(cc4ccc(O)cc4c13)NC2=O [ARISTOLACTAM AIIIA] | 140 | 35300 | 214 | 1420

From ChEMBL document CHEMBL1156897, “New potential antitumor compounds from the plant Aristolochia manshuriensis as inhibitors of the CDK2 enzyme” (Bioorg Med Chem Lett, 2010)
